Assay results as given in patent US11389537B2, “Drug delivery system for sustained delivery of bioactive agents” (UPM-Kymmene Corporation, priority 2011, dated 2022).
Converted amounts (≈) assume the structure as drawn. Structures can show the parent of a compound that is named as a salt. Where two headings read alike, the source gives them in different places.

How the values were obtained:
[1] = cited from earlier work
[2] = Stability in water solution of tested drugs; assay type: physicochemical
Excerpt: (§1) NFC has strong affinity to water, which makes drying it difficult. The residence time in the spray-drying chamber is short and therefore high temperature needs to be used in drying. If lower temperature and/or higher feeding rates were to be used, the wet material would adhere to the chamber. The application of high temperature when spray drying the aqueous suspension of NFC containing an API, increases the risk of degradation of the API during the drying process. High temperature is also a limitation for the choice of the API if its melting point is low (Table 11, showing the values of melting point (Tm), water solubility and stability in water solution of tested drugs). Generally, particles reach a maximum temperature during spraying, which is 15-20° C. below the outlet temperature of a co-current dryer.

[3] = Contact angle between matrix surface and water drop; settings: water drop on matrix surface or pure drug
[4] = Solubility in water of tested drugs; assay type: physicochemical; settings: value obtained from testing
Excerpt: as §1, with “dryer. During the particle production outlet temperatures were in the range of 120-127° C., which was sufficient for successful drying.” for “dryer.”

Structure (SMILES): COCCc1ccc(OCC(O)CNC(C)C)cc1 (stereo not shown) [Metoprolol tartrate, metoprolol tartrate]
- Solubility in water (words) [1]: freely
- Stability in water solution (21° C.) ([2]; obtained from testing): *up to 60 days

Structure (SMILES): COc1ccc2c(c1)c(CC(=O)O)c(C)n2C(=O)c1ccc(Cl)cc1 [Indomethacin, indomethacin]
- Solubility in water [1]: <0.001 mg/mL
- Solubility in water (words) [1]: ↑ with ↑ pH
- Solubility in water ([1]; line below '↑ with ↑ pH'): <1 mg/mL
- Contact angle [3]: 76.7
- Stability in water solution (21° C.) ([2]; pH 7.4, obtained from testing): *pH 7.4 up to 4 days

Structure (SMILES): CC(C)(C)NCC(O)COc1cccc2c1CC(O)C(O)C2 (stereo not shown) [Nadolol, nadolol]
- solubility [4]: 6.77 mg/mL (≈ 21.9 mM)
- Stability in water solution (21° C.) ([2]; obtained from testing): *up to 30 days

Structure (SMILES): CC(C)Cc1ccc(C(C)C(=O)O)cc1 (stereo not shown) [Ibuprofen, ibuprofen]
- Solubility (50 mM NH4OH) ([1]; 50 mM NH4OH): 6 mg/mL (≈ 29.1 mM)
